Experiments:
Experiment in all cases: area under concentration-response curve (viability) (AUC (a.u.)); higher = less active
Conditions in all cases: 48 h
[1] = test system: CU-ACC2
Method in brief: (§1)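 Three adrenocortical carcinoma cell lines were seeded at 500–1,000 cells/well in 5 µL medium in 1,536-well plates. 23 nL of each MIPE 5.0 library compound was added at 11 concentrations. After 48 h (per the protocol name), CellTiter-Glo was added for 15 minutes at room temperature and luminescence was read. Signals were normalised per plate to vehicle and empty-well controls. AC50 and area under the curve came from fitted concentration-response curves, keeping only inhibitory or non-responding curve classes.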

[2] = test system: NCI-H295R
Method in brief: as §1

[3] = test system: CU-ACC1
Method in brief: as §1

| Structure (SMILES) | area under concentration-response curve [1] | area under concentration-response curve [2] | area under concentration-response curve [3] |
| --- | --- | --- | --- |
| O=C(O)CNC(=O)C1C(=O)N(C2CCCCC2)C(=O)N(C2CCCCC2)C1=O | 483 | 479 | 473 |
| COc1cc2ncnc(Nc3ccc(O)c(Br)c3)c2cc1OC | 602 | 528 | 479 |
| C[C@]\1(CCS\C(=N1)N)C2=CC(=C(F)C=C2F)C3=CN=CN=C3 | 544 | 509 | 478 |
| C#CCC(Cc1cnc2nc(N)nc(N)c2n1)c1ccc(C(=O)N[C@@H](CCC(=O)O)C(=O)O)cc1 (some centres undefined) | 509 | 546 | 552 |
| CCCCNc1ncc(-c2ccc(CN3CCOCC3)cn2)c(N[C@H]2CC[C@H](O)CC2)n1 | 721 | 623 | 612 |
| Cc1nnc(C(C)C)n1C1CC2CCC(C1)N2CCC(NC(=O)C1CCC(F)(F)CC1)c1ccccc1 (centres undefined) | 498 | 451 | 478 |
| CCc1nc(N)nc(N)c1-c1ccc(Cl)cc1 | 564 | 521 | 483 |
| O=C(O)CNC(=O)c1nc(Cl)c2ccccc2c1O | 604 | 529 | 498 |
| [2H]c1nc(C)nc([2H])c1-c1cc(NC[C@@H](C)c2cccc3c(C(=O)NC)ccnc23)ncn1 | 629 | 585 | 531 |
| CC(=O)OCC(CCn1cnc2cnc(N)nc21)COC(C)=O | 596 | 570 | 565 |
| CC(=O)OCC(=O)[C@@]12\N=C(C)/O[C@@H]1C[C@H]3[C@@H]4CCC/5=C/C(=O)/C=C\[C@]5(C)[C@H]4[C@@H](O)C[C@]23C | 581 | 514 | 483 |
| COc1cc(-c2cc(-c3ccc(N4CCNCC4)cc3)cnc2C)cc(OC)c1OC | 585 | 556 | 548 |
| Nc1ncnc2c1ncn2[C@@H]1O[C@H](CO)[C@@H](O)[C@@H]1O | 582 | 515 | 496 |
| Clc1ccc2ncc(-c3cccc(NC4CNC4)n3)n2c1 | 644 | 576 | 522 |
| CC(=O)O[C@@]1(CC[C@H]2[C@@H]3\C=C(C)/C4=C/C(=O)CC[C@]4(C)[C@H]3CC[C@]12C)C(C)=O | 553 | 492 | 471 |
| CC(C)OC1=C(F)C=C(C=C1)C2=N[N]([C@@H](C)C/3=C(C4=CC(=CC=C4)F)/C(=O)C5=CC(=CC=C5O3)F)C6=C2C(=NC=N6)N | 641 | 547 | 516 |
| C[C@]\12CCC(=O)\C=C1[C@@H]3C[C@@H]3[C@@H]4[C@@H]2CC[C@@]5(C)[C@H]4[C@@H]6C[C@@H]6[C@@]57CCC(=O)O7 | 602 | 549 | 509 |
| CC\1=C(C(=O)N(\C=C1)C2=CC=C(C=C2)C3=NC=CO3)/C4=CC5=CN=C(N)N=C5C=C4 | 625 | 574 | 547 |
| CCOc1cc(/C=C2/C(=O)N(c3ccccc3)N=C2C)cc(Cl)c1OCC(=O)OC | 664 | 590 | 587 |

| Structure (SMILES) | area under concentration-response curve [1] | area under concentration-response curve [2] | area under concentration-response curve [3] |
| --- | --- | --- | --- |
| Cc1c(N)nc([C@H](CC(N)=O)NC[C@@H](N)C(N)=O)nc1C(=O)N[C@H](C(=O)N[C@@H](C)[C@H](O)[C@@H](C)C(=O)N[C@@H](C(=O)NCCc1nc(-c2nc(C(=O)NCCC[S+](C)C)cs2)cs1)[C@@H](C)O)C(O[C@H]1O[C@H](CO)[C@H](O)[C@@H](O)[C@H]1O[C@H]1O[C@H](CO)[C@@H](O)[C@H](OC(N)=O)[C@@H]1O)c1c[nH]cn1 (some centres undefined) | 614 | 530 | 508 |
| CC1=C(C)C=C(N[S+]([O-])(=O)C2=CC3=C(NC(C4C\C=C/C34)C5=CC=C(C=C5)C(O)=O)C=C2)C=C1 (centres undefined) | 600 | 555 | 525 |
| CCCC(CCC)C(=O)[O-] | 482 | 442 | 445 |
| CC(C)C[C@H](NC(=O)[C@H](Cc1ccccc1)NC(=O)OCc1ccccc1)C(=O)C=O | 531 | 504 | 456 |
| C#Cc1cccc(Nc2ncnc3cc(OCCOC)c(OCCO)cc23)c1 | 615 | 541 | 528 |
| C[Se]CCC(N)C(=O)O (centres undefined) | 550 | 479 | 540 |
| CC1(C)Cc2c(-c3ccccc3)c(-c3ccc(Cl)cc3)c(CC(=O)O)n2C1 | 559 | 516 | 475 |
| c1cc(-c2sc(-c3ccncc3)c(-c3ccncc3)c2-c2ccncc2)ccn1 | 544 | 565 | 549 |
| C[S+](=O)([O-])c1cc(F)cc2c3c(n(Cc4ccc(Cl)cc4)c12)[C@@H](CC(=O)O)CC3 | 613 | 544 | 536 |
| NC(=O)c1cccc(-c2cccc(OC(=O)NC3CCCCC3)c2)c1 | 485 | 470 | 480 |
| C[C@]12C[C@H](O)[C@H]3[C@@H](CC\C4=C\C(=O)\C=C/[C@]34C)[C@@H]1CC[C@]2(O)C(=O)CO | 590 | 545 | 496 |
| CCOC(=O)[C@@H](N)CCC(=O)N[C@@H](CSCc1ccccc1)C(=O)N[C@@H](C(=O)OCC)c1ccccc1 | 635 | 602 | 594 |
| O=C(O)c1ccccc1C(=O)Nc1ccc(-c2ccccc2)cc1 | 580 | 491 | 514 |
| NC\1=N\C(=O)N(\C=C1)[C@@H]2CS[C@H](CO)O2 | 612 | 569 | 534 |
| CCc1cc(Nc2nccc(-c3c(-c4ccc(OC)c(C(=O)Nc5c(F)cccc5F)c4)nc4ccccn34)n2)c(OC)cc1N1CCC(N2CCN([S+](C)(=O)[O-])CC2)CC1 | 548 | 485 | 509 |
| CCNC(=O)C[C@H]1/N=C(/C2=CC=C(Cl)C=C2)C3=CC(=CC=C3[N]4C(=NN=C14)C)OC | 452 | 455 | 362 |
| O=C(O)c1cc(O)c2c(c1)C(=O)c1cccc(O)c1C2=O | 622 | 582 | 529 |
| C[C@H]1CNCCCN1[S+](=O)([O-])c1cccc2cncc(F)c12 | 589 | 551 | 530 |
| CO[C@@H]1[C@H](N(C)C(=O)c2ccccc2)C[C@H]2O[C@]1(C)n1c3ccccc3c3c4c(c5c6ccccc6n2c5c31)C(=O)NC4 | 476 | 492 | 522 |

— the supplement of paper PMC10949913
